In one assay the test system is Saos-2 cells. The experiment in a line: DNA damage foci staining (53BP1, γH2AX). It is filed as cell-based, human. The following applies: 1 μM NU-1, 0 or 6 Gy. The protocol: MCF7 or Saos-2 cells were seeded on sterile cover glass at 2.5×10^4 per well in 24-well plates. MCF7 cells were treated with DMSO, NU-2 (0.5 μM), NU-1 (0.5 μM), chrolactomycin (0.5 μM), BIBR 1532 (10 μM), or MST-312 (1 μM) for 1 h, and Saos-2 cells were treated with DMSO or NU-1 (1 μM) for 1 h, followed by 0 or 6 Gy irradiation. 24 h after irradiation, cells were fixed with 4% PFA for 10 min and permeabilized with 0.2% Triton-X 100 diluted in PBS for 10 min at room temperature. After blocking with 5% BSA-PBS for 1 h, primary antibodies for γH2AX (Millipore, 05-636, 1:1000) or 53BP1 (Novus, NB100-304, 1:1000) diluted in 5% BSA-PBS were then incubated on cell slides overnight at 4° C. Following PBS washes, DAPI (1 μg/mL) and fluorescent secondary antibodies (Jackson ImmunoResearch, 1:2000, ) diluted in 5% BSA-PBS were applied for 1 h at room temperature. Cell slides were mounted with ProLong Gold Antifade Mountant (Thermo Fisher Scientific) after PBS washes. Foci images were captured on a Zeiss Axiovert 40CFL with a 40× Plan-NeoFluar objective and pseudo-colored using Fiji. Three replicates were performed.

For another assay, the system named is CT26 tumors. The experiment in a line: Subcutaneous CT26 tumor growth, IR with or without NU-1, immunodeficient host. It counts as in vivo. Conditions: NSG mice. The protocol: For tumor inoculation, 7-9 week BALB/c mice or NSG mice were subcutaneously injected in the flank with 0.5×10^6 CT26 cells in 100 μL PBS. On Day 9 (tumor average volume ˜30 mm^3), the tumor bearing BALB/c mice were randomly divided into 4 groups of 8, while the NSG mice were randomly divided into 2 groups of 5-6. For NU-1 treatment, 10 mg/kg of NU-1 in 100 μL PBS was injected intraperitoneally once on each of the 2 days before, the day of and 2 days after irradiation. Mouse weight was measured before treatment. Tumor irradiation was conducted on Day 11 using a RadSource RS-2000 X-Ray generator operating at 160 kV and 25 mA at 10 Gy, calibrated by NIST traceable dosimetry. From Day 7 after tumor inoculation, tumors were measured by calipers every 2-3 days and volume calculated using the formula: Tumor volume (mm^3)=length (mm)×width (mm)×width (mm)[…]. On Day 18 after tumor inoculation, tumors from 3 mice under each treatment condition were collected for histology analysis. The rest of the mice were continuously maintained and recorded until at least Day 28 or reaching the humane endpoint for tumor volume. No animals that formed tumors after injection with CT26 cells were excluded from any studies reported here.
CT26 tumors were collected 5 days after treatment (Day 18 after tumor inoculation) and fixed in 10% neutral formalin for 24 h. […]

Experimental findings from patent US12440476B2, “Agents that target telomerase reverse transcriptase (TERT) for treating cancer and sensitizing cancer cells to genotoxic therapy” (Northwestern University, priority 2022, dated 2025) are described below.

As for `C=C1C(=O)[C@](C)(C(=O)OC)[C@H](CCc2cn(Cc3ccc(F)cc3F)nn2)O[C@@H]1C` [NU-1], the “Effect on 53BP1 or γH2AX foci” value with Saos-2 cells was “appeared not to impact 53BP1 or γH2AX foci”. In the assay with CT26 tumors (IR + NU-1), the Tumor elimination result was “no longer sufficient to eliminate tumors”. Also, in the assay on CT26 tumors (IR + NU-1 vs IR alone), the Tumor growth delay entry was “enhanced growth delay”.
